# From PMC6836573, “Mitochondria-targeting fluorescent molecules for high efficiency cancer growth inhibition and imaging” (Chemical Science, 2019)
# Experiments:
# bladder cancer T24 cell = assay: Cytotoxicity assay (direct cell counting), T24; assay type: cell-based
# Protocol: (§1) Cell culture, imaging, and cytotoxicity assay
# (§2) RPMI-1640 medium. NIH/3T3 was cultured in DMEM medium. A549 was cultured in F-12K medium. T24 were cultured in McCoy's 5A medium. All culture mediums were supplemented with 10% fetal bovine serum. The cells were incubated at 37 °C in an atmosphere containing 5% CO 2. […]
# (§3) Cytotoxicity assay. All test cell lines were incubated in 96-well plates overnight at a density of 3000 cells/well. The culture medium was replaced with 200 μL of culture medium, into which the testing compound was dispersed at various concentrations (1.95 - 500 μM). After incubating for 3 days, the viable cell numbers were checked and directly counted under microscopy (10X). A minimum of 1mm×1mm area was counted from each of at least three widely separated regions of cell culture. The cell proliferation rate was calculated by the following formula: cell proliferation rate (%) = (average cell number of sample wells / average cell number of control wells) ×100%.
# (§4) The intact culture medium was evaluated as a control. […]
# H838 cells' mitochondria = assay: Effect of membrane potential (high K+ medium, FCCP) on 5BMF accumulation; assay type: cell-based
# Protocol: To verify that F16 derivatives preserve the same property, H838 cells were preincubated in high K^+ medium (137 mM) to depolarize the plasma membrane, then 5BMF (3 μM) was added and incubated for 30 min. […] As with other DLCs, the selectivity of F16s for mitochondria is driven by the negative transmembrane potential.[18]
# Mitotracker® Red (Molecular Probes) and Hoechst (Thermo Scientific) were added to the medium to stain the mitochondria and nuclei, following the manufacturer’s procedures. Cells were photographed as previously described using a 63× oil or 20× objective lens.
# The effect of membrane potential on 5BMF accumulation was performed through staining HCC827 cells in low K+ and high K+ buffer, instead of RPMI-1640 culture medium. Low K+ buffer contains 137 mM NaCl, 3.6 mM KCI, 0.5 mM MgCl2, 1.8 mM CaCl2 of RPMI-1640 medium (GIBCO). […]
# Cytotoxicity assay. […] After incubating for 3 days, the viable cell numbers were checked and directly counted under microscopy (10X). A minimum of 1mm×1mm area was counted from each of at least three widely separated regions of cell culture. The cell proliferation rate was calculated by the following formula: cell proliferation rate (%) = (average cell number of sample wells / average cell number of control wells) ×100%.
# as §4
# A549 NSCLC cell line = assay: Cytotoxicity assay, A549; assay type: cell-based; details: Homo sapiens; A549 cells
# Protocol: as §1, §2, §3, §4
# [1] = Self-assembly into nanoparticles (TEM, DLS); assay type: physicochemical; details: 1× pH 7.4 PBS, 5 mM to 0.125 mM
# H1437 NSCLC cell line = assay: Cytotoxicity assay, H1437; assay type: cell-based; details: Homo sapiens, NCI-H1437; H1437 cells
# Protocol: as §1, §2, §3, §4
# [2] = Relative fluorescence quantum yield; assay type: physicochemical; details: EtOH, relative to rhodamine 6G, excited at 425 nm
# Protocol: Quantum yield. The fluorescence quantum yields of F16s were determined according to the […]
# Where Φ is the quantum yield, F is the integrated area under the corrected emission spectrum, and A is the absorbance at the excitation wavelength; the subscripts x and s refer to F16s and the standard, respectively. Rhodamine 6G (ΦF = 95%) in ethanol was used as the standard. All F16s and Rhodamine 6G were dissolved in ethanol in 5 different concentrations with the absorbance lower than 0.1 at 425nm. The corresponding 5 different fluorescences of F16s and Rhodamine 6G were excited at 425 nm and the emission spectra from 450 nm to 650 nm were obtained for the following integrated area measurement. All data were analyzed using Origin Pro 9.0 software (OriginLab, Northampton, Massachusetts, USA) to get the F16s final quantum yield. […]
# HCC4006 NSCLC cell line = assay: Cytotoxicity assay, HCC4006; assay type: cell-based; details: Homo sapiens; HCC4006 cells
# Protocol: as §1, §2, §3, §4
# All animal experiments were performed in compliance with the Guidelines for the Care and Use of Research Animals as established by the Stanford University Animal Studies Committee. Female athymic nude mice (nu/nu) from 4−6 weeks old were obtained from Charles River Laboratories (Boston, MA, USA) and kept under sterile conditions. 5 × 106 human lung adenocarcinoma
compound,measurement,setting,value
Cc1cc(Br)cc2c(/C=C/c3cc[n+](C)cc3)c[nH]c12 [5BMF],selectivity indices,bladder cancer T24 cell; 3T3 versus T24 and H838,> 10
same,IC50,"bladder cancer T24 cell; Homo sapiens, T-24, 72 h, T24 cells, 3 days incubation, viable cells counted",820 nM
same,accumulation in mitochondria in high K+ medium versus low K+ medium,"H838 cells' mitochondria; H838 cells, 3 μM, 30 min, high K+ 137 mM, low K+ 3.6 mM",much less 5BMF accumulation in mitochondria
same,mitochondrial staining after addition of FCCP,"H838 cells' mitochondria; cells preloaded with 5BMF, FCCP 5 µM, 1 and 3 min",immediately decayed and diffused into the cytoplasm
same,IC50,A549 NSCLC cell line,727 nM
same,size of self-assembled nanoparticles,[1],~120 nm
same,IC50,H1437 NSCLC cell line,1430 nM
same,Quantum Yield,[2],19.7%
same,Quantum Yield,[2]; listed as 3,around 20%
same,IC50,HCC4006 NSCLC cell line,106 nM
